From article PMC6348444, “New Water-Soluble Copper(II) Complexes with Morpholine–Thiosemicarbazone Hybrids: Insights into the Anticancer and Antibacterial Mode of Action” (Journal of Medicinal Chemistry, 2018)
≈ marks a conversion by molar mass, not a printed value. Read-outs that look alike come from different tables or passages of the source.

Experiments:
[1] = system: Staphylococcus aureus CECT 86 (ATCC 12600); experiment: MIC microdilution, S. aureus; assay type: cell-based; details: planktonic cells; for MIC50 / MIC: Staphylococcus aureus; for MIC50 / S. aureus MIC50: growth inhibited at 50%; for MIC / S. aureus MIC100: lowest concentration completely inhibiting growth; for MIC: read-out: S. aureus MIC100
Method: (§1) Wild-type P. aeruginosa PAO1 strain CECT 4122 (ATCC 15692) and S. aureus CECT 86 (ATCC 12600) were obtained from the Spanish Type Culture Collection (CECT). All strains were routinely cultivated in TSB medium (Sharlab, Spain) at 37 °C. MIC assays were determined by the microdilution method using TSB broth following the method described by the Clinical and Laboratory standards Institute.[94] In brief, compounds were diluted in a 96-well microtiter plate (tissue culture-treated polystyrene; […]

[2] = n-octanol/water distribution coefficient, shake-flask; assay type: physicochemical; details: n-octanol/buffered aqueous solution, pH 7.40, UV-vis; for logD: pH 7.4, read-out: log D7.4
Method: The titrations were carried out under a nitrogen atmosphere.

A2780cisR cells = experiment: MTT cytotoxicity assay, A2780cisR; assay type: cell-based, human; details: for IC50: MTT assay, 72 h exposure, cisplatin-resistant A2780cisR, read-out: IC50 A2780cis; for RF (resistance factor): IC50(A2780cisR)/IC50(A2780)
A2780 cells [3] = experiment: MTT cytotoxicity assay, A2780; assay type: cell-based, human
[4] = system: Pseudomonas aeruginosa PAO1 CECT 4122 (ATCC 15692); experiment: MIC microdilution, P. aeruginosa; assay type: cell-based; details: planktonic cells; for MIC50 / MIC: Pseudomonas aeruginosa; for MIC50 / P. aeruginosa MIC50: growth inhibited at 50%; for MIC / P. aeruginosa MIC100: lowest concentration completely inhibiting growth; for MIC: read-out: P. aeruginosa MIC100
Method: as §1

HEK293 cells = experiment: MTT cytotoxicity assay, HEK293; assay type: cell-based, human; details: for IC50: MTT assay, 72 h exposure, noncancerous cells; for SF (selectivity factor): IC50(HEK293)/IC50(A2780)
[5] = T = 298 K, I = 0.10 M (KCl)
A2780 cells [6] = experiment: Cellular accumulation of Cu by ICP-MS; assay type: cell-based, human; details: 24 h exposure, 1 μM
From the text: The ability of anticancer drugs to penetrate biological membranes, tissues, and barriers underlies their biological, pharmacokinetic, and metabolic properties. These properties can be predicted by calculating physicochemical characteristics of drug candidates using molecular descriptors.[30] […] The results are shown in Table S7 in the Supporting Information. On the basis of the calculated physicochemical parameters, we determined if novel compounds belonged to the drug-like chemical space, which is commonly defined by the well-known Lipinski rule, or to the known drug space (KDS), which includes all small compounds in medical use.[31] […] Following the calculations, we determined the lipophilicity of all compounds experimentally (log D7.4, Tables 1 and 2). It is known that cancer cells accumulate hydrophilic compounds to a smaller extent relative to hydrophobic compounds, thereby affecting their activity. […] As expected, proligands were more lipophilic than the corresponding Cu(II) species, which are positively charged at physiological pH (Figure 3b). […] The lipophilicity of 2–5 increased in the following order 4 < 2 < 3 < 5, and correlated well with their cytotoxicity in cancer cells, with the exception of 3. Subsequently, we determined the total cellular accumulation of Cu in A2780 cells by ICP–MS upon 24 h exposure to 1–6 in comparison with CuCl2 (Table 2). […] The accumulation increased in the order 6 < 1 < 3 < 4 < 2 < 5.
Cellular accumulation of 1–6 was determined in A2780 cells. Cells were seeded into Cellstar 6-well plates (Greiner Bio-one) at a density of 60 × 10^4 cells/well (2 mL per well). After the cells were allowed to resume exponential growth for 24 h, they were exposed to 1–6 at 1 μM for 24 h at 37 °C. The cells were washed twice with 1 mL of PBS and lysed with RIPA lysis buffer for 5–10 min at 4 °C. The cell lysates were scraped from the wells and transferred to separate 1.5 mL microtubes. The supernatant was then collected after centrifugation (13 000 rpm, 4 °C for 15 min) and total protein content of each sample was quantified via Bradford’s assay. Cell lysates were transferred to 2 mL glass vials and then digested with ultrapure 65% HNO3 at 100 °C for 24 h. The resulting solution was diluted to 1 mL (2–4% v/v HNO3) with ultrapure Milli-Q water. Cu content of each sample was quantified by ICP–MS. In was used as an internal standard. Cu and In were measured at m/z 64 and m/z 115, respectively. Metal standards for calibration curve (0, 0.5, 1, 2, 5, 10, 20, and 40 ppb) were freshly prepared before each measurement. All readings were made in triplicates in He mode. For temperature-dependent cellular accumulation experiments, A2780 cells were seeded into 35 n 10 mm tissue culture plates at a density of 60 0 10^4 cells/plate. After the cells were allowed to resume exponential growth for 24 h, they were exposed to 2 at 3 μM for 10, 30, 60, and 120 min at 37 and 4 °C. The subsequent analysis was performed as described above. For energy-dependent experiments, A2780 cells were seeded into 35 5 10 mm tissue culture plates at a density of 1 0 10^6 cells/plate. After the cells were allowed to resume exponential growth for 24 h, they were preincubated with oligomycin (5 μM) for 1 or 4 h or with cycloheximide (100 μM) for 4 h and further co-incubated with 3 μM of 2 at 37 °C. To induce total starvation, after the cells were allowed to resume exponential growth for 24 h, RPMI media was replaced with HBSS, and cells were preincubated in HBSS for 1 h and further incubated with 3 μM of 2 for 1 h at 37 °C. The subsequent analysis was performed as described above.

[7] = Cyclic voltammetry, redox potentials; assay type: physicochemical; details: first reduction step
Method: To assess the redox properties of 1-6, detailed electrochemical and spectroscopic studies in various solvents were performed using cyclic voltammetry as well as EPR-spectroelectrochemistry. Additionally, the UV-vis spectra of 1-5 were measured (Figure S8). […] The second reduction step occurred at -1.8 V versus Fc^+/Fc (-1.16 V vs NHE) and was less reversible, indicating a ligand-based reduction. […] In aqueous solutions, the reduction potentials shifted to the less negative values, and reduction was less reversible as shown for 2 in Figure S10. […] Cyclic voltammetric experiments were performed as described previously.[46] The cyclic voltammograms were measured in the cathodic region in different solvents (DMSO, methanol, DMSO/H2O). The analytical purity grade LiClO4 (Sigma-Aldrich) and distilled and deionized water were used for preparation of 1 mM aqueous solutions of the investigated complexes 1-6. EPR spectra were recorded with the EMX plus. In situ UV-vis-NIR spectroelectrochemical measurements were performed on a spectrometer (Avantes, Model AvaSpec-2048x14-USB2 in the spectroelectrochemical cell kit ([…]3)) with the Pt-microstructured honeycomb working electrode, purchased from Pine Research Instrumentation. The cell was positioned in the CUV-UV Cuvette Holder (Ocean Optics) connected to the diode-array UV-vis-NIR spectrometer by optical fibers. UV-vis-NIR spectra were processed using the AvaSoft 7.7 software package. Halogen and deuterium lamps were used as light sources (Avantes, Model AvaLight-DH-S-BAL). The in situ EPR spectroelectrochemical experiments were carried out under an argon atmosphere in the EPR flat cell equipped with a large platinum mesh working electrode. The freshly prepared solutions were carefully purged with argon and the electrolytic cell was polarized in the galvanostatic mode directly in the cylindrical EPR cavity TM-110 (ER 4103 TM), and the EPR spectra were measured in situ.

[8] = Homo sapiens, A2780, 72 h exposure

NC(=S)NN=Cc1ccc(CN2CCOCC2)cn1 [HL^1, 5-(Morpholinomethyl)pyridine-2-carboxaldehyde Thiosemicarbazone]
MIC50 [1]: 100 µg/mL (≈ 358 µM)
MIC [1]: > 400 µg/mL
logD [2]: 0.46
IC50 (A2780cisR cells; Homo sapiens): 13000 ± 1000 nM
IC50 (A2780 cells [3]; [8]): 7600 ± 1900 nM
MIC50 [4]: > 500 µg/mL
MIC [4]: > 500 µg/mL
IC50 (HEK293 cells; Homo sapiens, HEK293): 9100 ± 1700 nM

CSC(=N)NN=Cc1ccc(CN2CCOCC2)cn1 [HL^6, 5-(Morpholinomethyl)pyridine-2-carboxaldehyde S-Methylisothiosemicarbazone]
MIC50 [1]: > 500 µg/mL
MIC [1]: > 500 µg/mL
S. aureus MIC50 [1]: >500 µg/mL
logD [2]: 0.84
IC50 (A2780cisR cells; Homo sapiens): 426000 ± 44000 nM
IC50 (A2780 cells [3]; [8]): 157000 ± 21000 nM
MIC50 [4]: > 500 µg/mL
MIC [4]: > 500 µg/mL
IC50 (HEK293 cells; Homo sapiens, HEK293): 89000 ± 2000 nM

NC(=NN=Cc1ccc(CN2CCOCC2)cn1)[S][Cu+] [[CuL]+]
logβ ([5]; determined via EDTA displacement study): 19.04(2)

CSC(=NN=Cc1ccc(CN2CCOCC2)cn1)[NH][Cu][Cl] [complex 6, [Cu(L^6)Cl]]
S. aureus MIC100 [1]: NA (NA denotes no antibacterial activity detected (>500 μg/mL))
log D7.4 [2]: –0.23 ± 0.01
RF (resistance factor) (A2780cisR cells): 1.4
IC50 (A2780cisR cells): 62000 ± 6000 nM
cellular accumulation A2780 (A2780 cells [6]): 0.47 ± 0.08 nmol Cu/mg protein
IC50 (A2780 cells [3]; 72 h exposure): 43000 ± 3000 nM
P. aeruginosa MIC50 [4]: 200 µg/mL
P. aeruginosa MIC100 [4]: NA (NA denotes no antibacterial activity detected (>500 μg/mL))
SF (selectivity factor) (HEK293 cells): 1.7
IC50 (HEK293 cells): 72000 nM

NC(=NN=Cc1ccc(CN2CCOCC2)cn1)[S][Cu][OH] [[CuLH41]]
logβ ([5]; EPR): 10.22(1)
logβ ([5]; UV-vis via CT bands): 10.42(1)
logβ ([5]; UV-vis via d-d bands): 10.45(1)
logβ ([5]; pH-metry): 10.45(4)

S=C(NN=Cc1ccc(CN2CCOCC2)cn1)Nc1ccccc1 [HL^5, 5-(Morpholinomethyl)pyridine-2-carboxaldehyde 4-Phenylthiosemicarbazone]
MIC50 [1]: 10 µg/mL (≈ 28.1 µM)
MIC [1]: 300 µg/mL (≈ 844 µM)
logD [2]: ≥ 2
IC50 (A2780cisR cells; Homo sapiens): 1100 ± 200 nM
IC50 (A2780 cells [3]; [8]): 310 ± 80 nM
MIC50 [4]: > 500 µg/mL
MIC [4]: > 500 µg/mL
IC50 (HEK293 cells; Homo sapiens, HEK293): 670 ± 60 nM

CN(C)C(=S)N/N=C/c1ccc(CN2CCOCC2)cn1 [HL^2, 5-(Morpholinomethyl)pyridine-2-carboxaldehyde 4,4-Dimethyl-3-thiosemicarbazone]
MIC50 [1]: 10 µg/mL (≈ 32.5 µM)
MIC [1]: 400 µg/mL (≈ 1300 µM)
logD [2]: 0.51
IC50 (A2780cisR cells; Homo sapiens): 35 ± 6 nM
IC50 (A2780 cells [3]; [8]): 10 ± 1 nM
MIC50 [4]: 70 µg/mL (≈ 228 µM)
MIC [4]: 100 µg/mL (≈ 325 µM)
IC50 (HEK293 cells; Homo sapiens, HEK293): 30 ± 5 nM

O=C(O)c1cn(C2CC2)c2cc(N3CCNCC3)c(F)cc2c1=O [CPX, ciprofloxacin, reference compound]
MIC50 [1]: 0.5 µg/mL (≈ 1.51 µM)
MIC [1]: 1 µg/mL (≈ 3.02 µM)
MIC50 [4]: 0.5 µg/mL (≈ 1.51 µM)
MIC [4]: 2 µg/mL (≈ 6.04 µM)

NC(=NN=Cc1ccc(C[NH+]2CCOCC2)cn1)[S][Cu+] [[CuLH]2+]
logβ ([5]; EPR): 24.00(1)
logβ ([5]; UV-vis via CT bands): 24.00(1)
logβ ([5]; UV-vis via d-d bands): 23.96(1)
logβ ([5]; pH-metry): 24.09(3)

[Cl][Cu][S]C(=NN=Cc1ccc(CN2CCOCC2)cn1)N1CCOCC1 [complex 4, [Cu(L^4)Cl]]
S. aureus MIC50 [1]: 5 µg/mL
S. aureus MIC100 [1]: 10 µg/mL
log D7.4 [2]: +0.12 ± 0.01
RF (resistance factor) (A2780cisR cells): 3.3
IC50 (A2780cisR cells): 260 ± 40 nM
cellular accumulation A2780 (A2780 cells [6]): 3.2 ± 0.7 nmol Cu/mg protein
IC50 (A2780 cells [3]; 72 h exposure): 80 ± 10 nM
E1/2 Red1 (DMSO) vs Fc+/Fc ([7]; DMSO, vs Fc+/Fc): –0.80 V
E1/2 Red1 (DMSO) vs NHE ([7]; DMSO, vs NHE (in brackets)): –0.16 V
E1/2 Red1 (MeOH) vs Fc+/Fc ([7]; MeOH, vs Fc+/Fc): –0.49 V
E1/2 Red1 (MeOH) vs NHE ([7]; MeOH, vs NHE (in brackets)): +0.15 V
P. aeruginosa MIC50 [4]: 100 µg/mL
P. aeruginosa MIC100 [4]: 400 µg/mL
SF (selectivity factor) (HEK293 cells): 3.0
IC50 (HEK293 cells): 240 ± 20 nM

N.N.[Cl][Pt][Cl] [cisplatin, reference compound]
RF (resistance factor) (A2780cisR cells): 10.5
IC50 (A2780cisR cells): 4600 ± 300 nM
IC50 (A2780 cells [3]; 72 h exposure): 440 ± 130 nM
